Measurements published in patent US20200071326A1, “TAM KINASE INHIBITORS” (Syros Pharmaceuticals, Inc., priority 2017, published 2020).
Counter-ions that a name gives are not always drawn.

Experiments:
AXL = target: T1, AXL (Homo sapiens, UniProt P30530); assay: IMAP fluorescence polarization kinase assay, AXL; assay type: biochemical; conditions: ATP 24.7 μM, enzyme 2.5 nM, 240 minutes, read-out: AXL inhibitory constant (Ki)
T1 sequence (P30530 26-894): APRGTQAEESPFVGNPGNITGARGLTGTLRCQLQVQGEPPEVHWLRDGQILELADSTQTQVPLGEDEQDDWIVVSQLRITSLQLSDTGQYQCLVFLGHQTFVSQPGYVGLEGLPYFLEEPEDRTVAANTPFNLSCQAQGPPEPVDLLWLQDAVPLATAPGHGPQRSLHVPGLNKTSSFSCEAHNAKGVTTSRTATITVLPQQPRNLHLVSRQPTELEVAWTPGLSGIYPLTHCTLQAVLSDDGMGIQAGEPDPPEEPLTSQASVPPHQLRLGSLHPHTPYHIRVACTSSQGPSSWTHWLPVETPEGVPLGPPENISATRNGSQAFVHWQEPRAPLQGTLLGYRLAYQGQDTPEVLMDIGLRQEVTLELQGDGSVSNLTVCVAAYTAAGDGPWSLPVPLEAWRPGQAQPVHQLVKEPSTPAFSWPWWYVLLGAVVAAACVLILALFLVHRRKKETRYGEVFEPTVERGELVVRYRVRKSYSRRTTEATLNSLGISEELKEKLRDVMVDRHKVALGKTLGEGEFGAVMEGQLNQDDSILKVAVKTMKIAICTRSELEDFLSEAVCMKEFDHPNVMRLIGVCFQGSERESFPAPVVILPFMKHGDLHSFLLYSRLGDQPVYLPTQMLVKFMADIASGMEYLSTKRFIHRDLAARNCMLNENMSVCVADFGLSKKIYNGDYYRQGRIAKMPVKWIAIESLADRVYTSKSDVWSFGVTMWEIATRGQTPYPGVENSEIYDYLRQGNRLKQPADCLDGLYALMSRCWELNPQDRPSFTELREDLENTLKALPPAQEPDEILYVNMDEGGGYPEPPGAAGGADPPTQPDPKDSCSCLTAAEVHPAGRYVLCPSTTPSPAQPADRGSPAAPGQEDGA
Method: (§1) Activities of compounds against each of TYRO3, AXL, and MERTK as well as against FLT3, were determined using an immobilized metal ion affinity-based fluorescence polarization (“IMAP”) assay. A fluorescently-labeled substrate peptide was phosphorylated in the kinase reaction, after which a binding solution containing large trivalent metal-based nanoparticles was added and the phosphorylated substrate binds to these beads. This reduces the rotational speed of the substrate which is then detected using fluorescence polarization as a read-out.
(§2) The substrates used for each enzyme are as follows: AXL: 5F1-KKKKEEIYFFFG-NH2(SEQ ID NO:1); FLT3: 5F1-KKKKEEIYFFF-NH2 (SEQ ID NO:2); MERTK: 5F1-EFPIYDFLPAKKK-NH2 (SEQ ID NO:3); and TYRO3: 5F1-EFPIYDFLPAKKK-NH2 (SEQ ID NO:4).
(§3) This assay was performed in a 384-well, polystyrene microplate in a final volume of 8 μl. Substrate (final concentration=400 nM), ATP (final concentrations=24.7μM for AXL; 2.74 μM for FLT3; 2.69 μM for MERTK; and 54.0 μM for TYRO3), compounds and enzyme (final concentrations=2.5 nM for AXL, FLT3 and TYRO3; 1.5 nM for MERTK) were pipetted in this order into the appropriate reaction buffer (AXL: 50 mM HEPES, pH 8.0, 1 mM DTT, 10 mM MgCl2, 0.01% BRU35, 0.01% Triton X-100; FLT3: 50 mM HEPES, pH 8.0, 1 mM DTT, 10 mM MgCl2, 0.01% Triton X-100, 0.01% NP40; MERTK/TYRO3: 50 mM HEPES, pH 8.0, 1 mM DTT, 10 mM MgCl2, 0.01% Triton X-100) and incubated at room temperature for varying times (AXL, FLT3 and MERTK: 240 minutes; TYRO3: 60 minutes). IMAP binding solution was then dispensed, the plate incubated for 60 minutes at room temperature and the fluorescence polarization measured. Data were analyzed using XLfit.

TYRO3 = target: T2, TYRO3 (Homo sapiens, UniProt Q06418); assay: IMAP fluorescence polarization kinase assay, TYRO3; assay type: biochemical; conditions: ATP 54.0 μM, enzyme 2.5 nM, 60 minutes, read-out: TYRO3 inhibitory constant (Ki)
T2 sequence (Q06418 41-890): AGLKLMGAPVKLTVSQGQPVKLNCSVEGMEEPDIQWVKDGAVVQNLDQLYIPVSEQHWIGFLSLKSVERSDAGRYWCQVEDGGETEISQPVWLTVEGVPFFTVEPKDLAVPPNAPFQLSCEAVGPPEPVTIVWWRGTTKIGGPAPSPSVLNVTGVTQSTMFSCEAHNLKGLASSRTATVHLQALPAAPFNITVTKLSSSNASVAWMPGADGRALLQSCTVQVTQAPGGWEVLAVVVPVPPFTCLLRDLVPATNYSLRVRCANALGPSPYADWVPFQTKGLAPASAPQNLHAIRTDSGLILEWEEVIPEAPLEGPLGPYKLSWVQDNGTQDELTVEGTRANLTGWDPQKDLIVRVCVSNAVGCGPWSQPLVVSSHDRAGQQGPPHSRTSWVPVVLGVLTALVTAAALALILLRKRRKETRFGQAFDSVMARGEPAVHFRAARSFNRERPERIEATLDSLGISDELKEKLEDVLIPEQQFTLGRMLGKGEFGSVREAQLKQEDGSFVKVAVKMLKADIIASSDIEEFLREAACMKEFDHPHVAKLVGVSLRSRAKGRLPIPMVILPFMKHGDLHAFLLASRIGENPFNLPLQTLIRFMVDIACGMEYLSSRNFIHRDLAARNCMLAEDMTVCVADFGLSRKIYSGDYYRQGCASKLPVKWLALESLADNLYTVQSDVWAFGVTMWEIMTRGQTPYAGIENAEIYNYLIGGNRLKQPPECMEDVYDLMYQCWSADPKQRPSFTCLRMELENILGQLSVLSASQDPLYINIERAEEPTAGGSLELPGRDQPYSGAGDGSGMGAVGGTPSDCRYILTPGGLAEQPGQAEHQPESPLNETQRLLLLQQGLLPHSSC
Method: as §1, §2, §3

Ki (AXL) [µM] | Ki (TYRO3) [µM] | SMILES
1 to 10 | < 0.1 | CCCc1cc2c(N[C@H]3CC[C@H](N)CC3)c(-c3ccc(COC(C)C)cn3)cnc2[nH]1 [Compound 130]
0.1 to 1 | < 0.1 | CCc1cc2c(N[C@H]3CC[C@H](N)CC3)c(C(=O)NC3CCN(c4ncccn4)CC3)cnc2[nH]1 [Compound 132]
0.1 to 1 | < 0.1 | CCCCCc1cc2c(N[C@H]3CC[C@H](N)CC3)c(C(=O)NCc3ccc(-n4ccnc4)cc3)cnc2[nH]1 [Compound 133]
1 to 10 | < 0.1 | CCC(C)c1cc2c(N[C@H]3CC[C@H](N)CC3)c(C(=O)Nc3ccc(F)cc3)cnc2[nH]1 (stereo partly drawn) [Compound 134]
0.1 to 1 | < 0.1 | CCc1cc2c(N[C@H]3CC[C@H](N)CC3)c(C(=O)Nc3ccc(F)cc3)cnc2[nH]1 [Compound 136]
1 to 10 | < 0.1 | N[C@H]1CC[C@H](Nc2c(C(=O)Nc3ccc(F)cc3)cnc3[nH]c(C4CCC4)cc23)CC1 [Compound 138, 4-(((1r,4r)-4-aminocyclohexyl)amino)-2-cyclobutyl-N-(4-fluorophenyl)-1H-pyrrolo[2,3-b]pyridine-5-carboxamide hydrochloride]
0.1 to 1 | < 0.1 | CCCc1cc2c(N[C@H]3CC[C@H](N)CC3)c(Br)cnc2[nH]1 [Compound 142]
> 10 | 0.1 to 1 | COC(C)c1cc2c(N[C@H]3CC[C@H](N)CC3)c(C(=O)Nc3ccc(F)cc3)cnc2[nH]1 (stereo partly drawn) [Compound 145]
> 10 | 0.1 to 1 | CCCC(O)c1cc2c(N[C@H]3CC[C@H](N)CC3)c(C(=O)Nc3ccc(F)cc3)cnc2[nH]1 (stereo partly drawn) [Compound 154]
> 10 | < 0.1 | COCC(C)c1cc2c(N[C@H]3CC[C@H](N)CC3)c(C(=O)Nc3ccc(F)cc3)cnc2[nH]1 (stereo partly drawn) [Compound 155]
> 10 | 1 to 10 | CCC(C)c1cc2c(N[C@H]3CC[C@H](O)CC3)c(C(=O)NC3CCN(c4ncccn4)CC3)cnc2[nH]1 (stereo partly drawn) [Compound 157]

Continued, compound first:

SMILES | Ki (AXL) [µM] | Ki (TYRO3) [µM]
CC(C)c1cc2c(N[C@H]3CC[C@H](N)CC3)c(C(=O)NCc3ccc(-n4ccnc4)cc3)cnc2[nH]1 [Compound 129] | 0.1 to 1 | < 0.1
CCCc1cc2c(N[C@H]3CC[C@H](N)CC3)c(-c3cc(N)ccn3)cnc2[nH]1 [Compound 131] | 1 to 10 | < 0.1
N[C@H]1CC[C@H](Nc2c(C(=O)Nc3ccc(F)cc3)cnc3[nH]c(C(F)(F)F)cc23)CC1 [Compound 135, 4-(((1r,4r)-4-aminocyclohexyl)amino)-N-(4-fluorophenyl)-2-(trifluoromethyl)-1H-pyrrolo[2,3-b]pyridine-5-carboxamide hydrochloride] | 0.1 to 1 | < 0.1
CCCC(O)c1cc2c(N[C@H]3CC[C@H](N)CC3)c(Br)cnc2[nH]1 (stereo partly drawn) [Compound 137] | 1 to 10 | 0.1 to 1
CCCc1cc2c(N[C@H]3CC[C@H](N)CC3)c(C(=O)NC)cnc2[nH]1 [Compound 139] | 0.1 to 1 | < 0.1
CCCc1cc2c(N[C@H]3CC[C@H](N)CC3)c(C(=O)OC)cnc2[nH]1 [Compound 140] | 1 to 10 | < 0.1
CCCc1cc2c(N[C@H]3CC[C@H](N)CC3)c(C(=O)NC3CCN(c4ncccn4)CC3)cnc2[nH]1 [Compound 141] | 0.1 to 1 | < 0.1
CC(O)c1cc2c(N[C@H]3CC[C@H](O)CC3)c(-c3ccc(CN4CCOCC4)cn3)cnc2[nH]1 (stereo partly drawn) [Compound 143] | 1 to 10 | < 0.1
CCc1cc2c(N[C@H]3CC[C@H](O)CC3)c(-c3ccc(CN4CCOCC4)cn3)cnc2[nH]1 [Compound 144] | 0.1 to 1 | < 0.1
CCC(OC)c1cc2c(N[C@H]3CC[C@H](N)CC3)c(C(=O)Nc3ccc(F)cc3)cnc2[nH]1 (stereo partly drawn) [Compound 146] | > 10 | < 0.1
CCC(CC)c1cc2c(N[C@H]3CC[C@H](N)CC3)c(C(=O)Nc3ccc(F)cc3)cnc2[nH]1 [Compound 147] | 1 to 10 | < 0.1
CC(O)c1cc2c(N[C@H]3CC[C@H](N)CC3)c(C(=O)Nc3ccc(F)cc3)cnc2[nH]1 (stereo partly drawn) [Compound 148] | > 10 | 0.1 to 1
CCC[C@H](C)c1cc2c(N[C@H]3CC[C@H](N)CC3)c(C(=O)Nc3ccc(F)cc3)cnc2[nH]1 [Compound 149] | 1 to 10 | < 0.1
CCC[C@@H](C)c1cc2c(N[C@H]3CC[C@H](N)CC3)c(C(=O)Nc3ccc(F)cc3)cnc2[nH]1 [Compound 150] | 1 to 10 | < 0.1
CCOC(C)c1cc2c(N[C@H]3CC[C@H](N)CC3)c(C(=O)Nc3ccc(F)cc3)cnc2[nH]1 (stereo partly drawn) [Compound 152] | > 10 | 0.1 to 1
CCCC(OC)c1cc2c(N[C@H]3CC[C@H](N)CC3)c(C(=O)Nc3ccc(F)cc3)cnc2[nH]1 (stereo partly drawn) [Compound 153] | > 10 | < 0.1
CC[C@H](C)c1cc2c(N[C@H]3CC[C@H](N)CC3)c(C(=O)Nc3ccc(F)cc3)cnc2[nH]1 [Compound 156] | 1 to 10 | < 0.1
CCC(C)c1cc2c(N[C@H]3CC[C@H](O)CC3)c(C(=O)NC3CCN(C4=NCCCN4)CC3)cnc2[nH]1 (stereo partly drawn) [Compound 158] | 1 to 10 | < 0.1
CCC(C)c1cc2c(N[C@H]3CC[C@H](O)CC3)c(-c3ccc(S(=O)(=O)N4CCOCC4)cn3)cnc2[nH]1 (stereo partly drawn) [Compound 159] | > 10 | 1 to 10
